# From patent publication US7786093B2, “Antistress agent” (Health Wellness Foods Corporation, priority 2004, dated 2010)
# Experiments:
# BALB/c mice = experiment: Thymic and splenic atrophy due to DEX in mice; type: in vivo; conditions: control group (commercial feed), DEX 200 μg/mouse i.p., 24 h, female BALB/c mice
# Experimental: Female BALB/c mice (8 weeks old) were divided into a group fed with a commercially available feed (control group) and a group fed with a commercially available feed mixed with a nigerooligosaccharide liquid sugar (Nigero S: content of nigerooligosaccharide: 30.8% by weight; manufactured by Takeda Food Products, Ltd.) at a concentration of 5% by weight (nigerooligosaccharide group). […] After 24 hours of the administration, the thymus and spleen of each mouse were excised, and the weights of the excised thymus and spleen were measured.
# human mononuclear cells [1] = experiment: IL-12 and IFN-γ production by mononuclear cells stimulated with heat-killed Lactobacillus plantarum L137, with DEX (ELISA); type: cell-based; conditions: for IFN-γ / IL-12: DEX 10 nM, Lactobacillus plantarum L137 1.0 μg/mL, 24 h
# Experimental: (§1) A 2 μg/mL solution of a mouse anti-human IFN-γ antibody (manufactured by Endogen Inc.) prepared in a borate buffer solution was added in 50 μL per one well on a 96-well ELISA plate, and the plate was allowed to stand at 4° C. for a day to adhere the mouse anti-human IFN-γ antibody to each well. The above-mentioned culture supernatant was added in 50 μL per one well on the ELISA plate adhering the mouse anti-human IFN-γ antibody, and the plate was allowed to stand at room temperature for 90 minutes, thereby binding the IFN-γ in the culture supernatant to the mouse anti-human IFN-γ antibody adhered on the plate. After washing the plate, a 0.5 μg/mL solution of a biotin-labeled mouse anti-human IFN-γ antibody (manufactured by Endogen Inc.) prepared in a borate buffer solution was added thereto in 100 μL per one well to bind to the IFN-γ bound with the mouse anti-human IFN-γ antibody adhered on the plate. After washing out an unbound biotin-labeled mouse anti-human IFN-γ antibody, a solution of Avidin-HRP (manufactured by BD PharMingen Inc.) diluted 1000-fold in a borate buffer solution was added thereto in 100 μL per one well to bind to the biotin-labeled mouse anti-human IFN-γ antibody bound with the IFN-γ. After washing out an excess of Avidin-HRP, a phosphate buffer solution containing 0.006 V/V % of hydrogen peroxide and 0.1 W/V % of orthophenylenediamine was added thereto in 100 μL per one well to allow to react at room temperature for 15 minutes, and then the reaction was stopped by addition of 1.5 N sulfuric acid. The absorbance at a measurement wavelength of 492 nm and a reference wavelength of 630 nm was measured, and the concentration of the IFN-γ in the culture supernatant was obtained from a calibration curve prepared with a recombinant IFN-γ.
# To the culture was added a cell stimulatory factor, which was heated dead body cells of Lactobacillus plantarum L137, so as to make a final concentration of […]. […] After completion of the incubation, the amounts of IL-12 and IFN-γ in the culture supernatant were measured by the ELISA.
# human mononuclear cells [2] = experiment: Suppression by nigerose of the DEX-induced decrease in growth of ConA- or PHA-stimulated human mononuclear cells (WST-1 absorbance); type: cell-based; conditions: for Absorbance (at 450 nm to 630 nm): DEX 10 nM, 24 h
# Experimental: After a blood sample obtained from an adult was diluted two-fold with PBS, a Ficoll-Paque Plus solution (manufactured by Amersham Corporation) was added slowly to make double layers (blood diluted two-fold with PBS Ficoll-Paque Plus solution=4:3), which were centrifuged at the conditions of 400×g, 20° C. and 40 minutes. A mononuclear cell fraction present in the middle layer was recovered, and this mononuclear cell fraction washed twice with a 10-fold volume of PBS. The obtained mononuclear cells were suspended in an RPMI 1640 culture medium (manufactured by GIBCO BRL Corporation) to obtain a suspension of peripheral blood mononuclear cells. The number of cells in the suspension of peripheral blood mononuclear cells was measured with an automatic blood cell counter (manufactured by Sysmex Co., Ltd., Type CDA-500), and the mononuclear cells were suspended in RPMI 1640 culture medium so as to make the number of cells at a concentration of 2.0×10^6 cells/mL. This suspension was inoculated at 50 μL per one well on a 96-well tissue culture plate. To the inoculated suspension was added a solution of ConA or PHA in the RPMI 1640 culture medium in 50 μL per one well so as to make a final concentration of 2.0 μg/mL or 5.0 μg/mL, respectively. […] The mononuclear cells were incubated at 37° C. for 24 hours in a 5% CO2 incubator. At 4 hours before completion of the incubation, a solution of WST-1 (manufactured by Dojindo Laboratories Inc.), dissolved in 0.4 mM 1-methoxy PMS (manufactured by Dojindo Laboratories Inc.) to make a concentration of 10 mM, was added in 10 μL per one well, and the absorbance at a measurement wavelength of 450 nm and a reference wavelength of 630 nm was measured at the time of completion of the incubation.
# WST-1, when taken into living cells, is reduced by a intracellular mitochondrial dehydrogenase to produce water-soluble formazan. Because the amount of the thus-produced formazan is proportional to the number of the living cells, the measurement of the absorbance of formazan can be made as an index of the cell growth.
# [3] = tested on: spleen cells of BALB/c mice; experiment: Final test: cytokine production of spleen cells from DEX-administered mice given nigerooligosaccharide in drinking water (ELISA); type: in vivo; conditions: DEX 60 μg/mouse i.p., ion-exchanged water as drinking water
# Experimental: The prepared spleen cells were suspended in an RPMI 1640 culture medium so as to make a concentration of 5.0×10^6 cells/mL. This suspension was inoculated in 100 μL per one well on a 96-well tissue culture plate, and further a solution of a cell stimulatory factor, (1) PHA or (2) LPS, dissolved in the RPMI 1640 culture medium so as to make a final concentration of 12.5 μg/mL or 20 μg/mL, respectively, was added in 100 μL per one well. The spleen cells were cultivated at 37° C. for 24 hours in a 5% CO2 incubator, and the concentrations of cytokines in the culture supernatant, IL-4 and IFN-γ for the foregoing (1) or IL-10 and TNF-α for the foregoing (2), were measured by the ELISA. The amount of IFN-γ was measured on the basis of the ELISA described in Example 2. The amounts of IL-4, IL-10 and TNF-α were measured in a manner similar to the ELISA described in Example 2, except that the IFN-γ in the ELISA described in Example 2 was replaced by IL-4, IL-10 or TNF-α.
# Next, in this test, to 14 weeks old, female BALB/c mice (6 mice per one group) was given as a drinking water ion-exchanged water or a 1 W/V % solution of a highly pure nigerooligosaccharide (19.8% by weight of nigerose, 36.5% by weight of a trisaccharide fraction mainly composed of nigerosylglucose, 40.2% by weight of a tetra- or more saccharide fraction mainly composed of nigerosylmaltose, and 3.5% by weight of glucose) in ion-exchanged water, and the mice were fed with a commercially available feed. […] After 24 hours of the administration, the spleen was excised, and spleen cells were cultivated at the same conditions as those in the preliminary test, and the concentrations of cytokines in the culture supernatant were measured.
# human mononuclear cells [4] = experiment: IFN-γ production by ConA- or PHA-stimulated mononuclear cells with DEX (ELISA); type: cell-based; conditions: DEX 10 nM, 24 h
# Experimental: (a) In a manner similar to that in Example 1, mononuclear cells were prepared from blood of an adult, and the cultivation was initiated at a concentration of 5.0×10^5 mononuclear cells/mL. In a manner similar to that in Example 1, ConA or PHA as a cell stimulatory factor was added to the culture in 50 μL per one well so as to make a final concentration of 2.0 μg/mL or 5.0 μg/mL, respectively, thereby inducing cytokine production. […] After completion of the incubation, the amount of IFN-γ in the culture supernatant was measured by the ELISA.
# The determination by the ELISA is shown in the following.
# as §1
# human mononuclear cells [5] = experiment: Activated apoptosis of mononuclear cells (ssDNA Apoptosis ELISA kit); type: cell-based; conditions: for Absorbance (415 nm), degree of apoptosis: 24 h
# Experimental: In a manner similar to that in Example 1, mononuclear cells were prepared from blood of an adult, and the cultivation was initiated at a concentration of 5.0×10^5 mononuclear cells/mL in a manner similar to that in Example 1. To the culture was added ConA or a hemolytic streptococcus preparation OK-432 (picibanil, manufactured by Chugai Pharmaceutical Co., Ltd.) as a cell stimulatory factor, so as to make a final concentrations of 2.0 μg/mL or 1.0 μg/mL, respectively. At this time, nigerose was added to each of the culture groups so as to make a concentration of 1.0 μg/mL and 10 μg/mL, where a nigerose-free control group was provided to each of the culture groups. The mononuclear cells were incubated at 37° C. for 24 hours in a 5% CO2 incubator. After completion of the incubation, apoptosis cells were fixed with an ssDNA Apoptosis ELISA kit (manufactured by Chemicon International, Inc.) which could specifically detect only the apoptosis cells, treated with a DNA-denaturing agent, then stained, and the absorbance (415 nm) was measured to quantify the degree of apoptosis.
# [6] = nigerose 0 μg/mL, ConA 2.0 μg/mL
# [7] = nigerose 0 μg/mL, PHA 5.0 μg/mL
# [8] = nigerose 1 μg/mL, ConA 2.0 μg/mL
# [9] = nigerose 1 μg/mL, PHA 5.0 μg/mL
# [10] = nigerose 10 μg/mL, ConA 2.0 μg/mL
# [11] = nigerose 10 μg/mL, PHA 5.0 μg/mL
# [12] = nigerose 100 μg/mL, ConA 2.0 μg/mL
# [13] = nigerose 100 μg/mL, PHA 5.0 μg/mL
smiles,measurement,setting,value
"C[C@@H]1C[C@H]2[C@@H]3CCC4=CC(=O)C=C[C@]4(C)[C@@]3(F)[C@@H](O)C[C@]2(C)[C@@]1(O)C(=O)CO [DEX, Dexamethasone]",Weight of spleen,BALB/c mice,78.3 ± 19.3 mg
same,Weight of thymus,BALB/c mice,28.8 ± 10.3 mg
same,IFN-γ,human mononuclear cells [1]; nigerose 0 μg/mL,1.748 ± 0.307 ng/mL
same,Absorbance (at 450 nm to 630 nm),human mononuclear cells [2]; [6],0.286 ± 0.004
same,Absorbance (at 450 nm to 630 nm),human mononuclear cells [2]; [7],0.299 ± 0.004
same,IL-10 concentration in the culture supernatant,[3]; LPS,0.021 ± 0.011 ng/mL
same,TNF-α concentration in the culture supernatant,[3]; LPS,0.373 ± 0.062 ng/mL
same,IFN-γ concentration in the culture supernatant,[3]; PHA,0.059 ± 0.027 ng/mL
same,IL-4 concentration in the culture supernatant,[3]; PHA,2.1 ± 0.8 pg/mL
same,Amount of IFN-γ production,human mononuclear cells [4]; [6],0.106 ± 0.046 ng/mL
same,Amount of IFN-γ production,human mononuclear cells [4]; [7],0.119 ± 0.022 ng/mL
"OC[C@H]1O[C@H](O[C@H]2[C@H](O)[C@@H](CO)OC(O)[C@@H]2O)[C@H](O)[C@@H](O)[C@@H]1O (some centres unmarked) [Nigerose, nigerose]",decrease of IL-12 and IFN-γ due to DEX,"human mononuclear cells [1]; addition of nigerose, Tables 2 and 3",significantly suppressed concentration-dependently
same,IFN-γ,human mononuclear cells [1]; nigerose 0.1 μg/mL,1.895 ± 0.816 ng/mL
same,IL-12,human mononuclear cells [1]; nigerose 0.1 μg/mL,0.093 ± 0.021 ng/mL
same,IFN-γ,human mononuclear cells [1]; nigerose 1 μg/mL,1.866 ± 0.890 ng/mL
same,IL-12,human mononuclear cells [1]; nigerose 1 μg/mL,0.130 ± 0.042 ng/mL
same,IFN-γ,human mononuclear cells [1]; nigerose 10 μg/mL,2.677 ± 1.000 ng/mL
same,IL-12,human mononuclear cells [1]; nigerose 10 μg/mL,0.171 ± 0.016 ng/mL
same,decrease in the growth of mononuclear cells due to DEX,"human mononuclear cells [2]; addition of nigerose, ConA or PHA stimulation",significantly suppressed concentration-dependently
same,Absorbance (at 450 nm to 630 nm),human mononuclear cells [2]; [8],0.289 ± 0.004
same,Absorbance (at 450 nm to 630 nm),human mononuclear cells [2]; [9],0.290 ± 0.002
same,Absorbance (at 450 nm to 630 nm),human mononuclear cells [2]; [10],0.307 ± 0.003
same,Absorbance (at 450 nm to 630 nm),human mononuclear cells [2]; [11],0.305 ± 0.009
same,Absorbance (at 450 nm to 630 nm),human mononuclear cells [2]; [12],0.319 ± 0.004
same,Absorbance (at 450 nm to 630 nm),human mononuclear cells [2]; [13],0.319 ± 0.007
same,"Absorbance (415 nm), degree of apoptosis","human mononuclear cells [5]; nigerose 1.0 μg/mL, ConA 2.0 μg/mL",1.631 ± 0.175
same,"Absorbance (415 nm), degree of apoptosis","human mononuclear cells [5]; nigerose 1.0 μg/mL, OK-432 1.0 μg/mL",1.549 ± 0.276
same,"Absorbance (415 nm), degree of apoptosis","human mononuclear cells [5]; nigerose 1.0 μg/mL, culture solution (no cell stimulatory factor)",1.113 ± 0.053
same,"Absorbance (415 nm), degree of apoptosis",human mononuclear cells [5]; [10],1.372 ± 0.165
same,"Absorbance (415 nm), degree of apoptosis","human mononuclear cells [5]; nigerose 10 μg/mL, OK-432 1.0 μg/mL",1.767 ± 0.203
same,"Absorbance (415 nm), degree of apoptosis","human mononuclear cells [5]; nigerose 10 μg/mL, culture solution (no cell stimulatory factor)",1.134 ± 0.065
same,effect on the apoptosis,human mononuclear cells [5]; nigerose-added group,suppressive effect
same,Amount of IFN-γ production,human mononuclear cells [4]; [8],0.075 ± 0.070 ng/mL
same,Amount of IFN-γ production,human mononuclear cells [4]; [9],0.144 ± 0.022 ng/mL
same,Amount of IFN-γ production,human mononuclear cells [4]; [10],0.136 ± 0.095 ng/mL
same,Amount of IFN-γ production,human mononuclear cells [4]; [11],0.219 ± 0.095 ng/mL
same,Amount of IFN-γ production,human mononuclear cells [4]; [12],0.365 ± 0.053 ng/mL
same,Amount of IFN-γ production,human mononuclear cells [4]; [13],0.320 ± 0.038 ng/mL
